According to article PMC2192203 (The Journal of Experimental Medicine, 1995):

Tests used:
[1] = target: I-Ed MHC class II molecules (Mus musculus, UniProt P01904+P01915); settings: Fig. 2 B legend; control peptide; no reference given; cited from earlier work
[2] = tested on: I-Ek MHC class II molecules; settings: Fig. 2 A legend; control peptide; no reference given; cited from earlier work
[3] = tested on: lymph node cells from mice immunized with the peptide; experiment: Lymph node / spleen T cell proliferation assay of peptide-immunized mice; assay type: cell-based, mouse
[4] = tested on: CD4+ T cell line P69.2 (Ed-restricted, Ld 61-80-specific); experiment: T cell line P69.2 proliferation assay; assay type: cell-based, mouse; settings: for natural presentation of self-peptide: no exogenously added peptide
[5] = tested on: CD4+ T cell line B10.A-P11.2 (Ek-restricted, Ld 61-80-specific); experiment: T cell line B10.A-P11.2 proliferation assay; assay type: cell-based, mouse; settings: no added peptide
[6] = tested on: BALB/c-dm2 lymph node T cells primed with Ld 61-80; experiment: T cell determinant mapping with overlapping 12 mers; assay type: cell-based, mouse; settings: dm2 mice primed with Ld 61-80, single residue steps, Fig. 4
[7] = tested on: lymph node cells from mice immunized with the peptide; settings: syngeneic B10.A mice; cited from earlier work
[8] = tested on: T cells from Ld 61-80-primed B10.A mice; settings: H-2k class II-restricted; cited from earlier work
[9] = tested on: MHC class II-restricted presentation by APCs; settings: cited from earlier work

Substance: HEL 105-120: hen egg white lysozyme (HEL) 105-120 peptide known for its binding to Ed (MNAWVAWRNRCKGTDV; UniProt P00698 123-138, looked up, fragment)
- binding to I-Ed (control designation) [1]: known binder

Substance: HEL 1-17: known binder peptide in the I-Ek competition assay (KVFGRCELAAAMKRHGL; UniProt P00698 19-35, looked up, fragment)
- binding to I-Ek (control designation) [2]: known binder

Substance: EtLITQIAKGQEQWFILVNLR,T [Ld 61-80]
- immunogenicity ([3]; (B10.A x B10.D2) F1 mice (Fig. 1 D)): immunogenic and therefore cryptic
- phenotype of self-peptide (cryptic or dominant) ([3]; A.TL and B10.MBR mice): cryptic
- immunogenicity ([3]; A/J mice (Table 1)): vigorous T cell responses
- phenotype of self-peptide (cryptic or dominant) ([3]; B10.A(5R) mice): dominant
- T cell proliferation after immunization ([3]; B10.A(5R) mice (Fig. 6), five mice tested individually): no T cell proliferation was detected
- immunogenicity ([3]; B10.AKM mice (Table 2)): immunogenic
- immunogenicity ([3]; B10.D2 mice (Table 1)): failed to respond
- immunogenicity ([3]; BALB/c mice (Fig. 1 B)): nonimmunogenic
- immunogenicity ([3]; DBA/2 mice (Table 1)): nonimmunogenic
- immunogenicity ([3]; dm2 mutant mice, not expressing Ld (Fig. 1 C)): immunogenic
- phenotype of self-peptide (cryptic or dominant) ([3]; parental H-2s and H-2b mice): dominant
- natural presentation of self-peptide ([4]; (B10.A x B10.D2) F1 APCs, Fig. 3 C): could not spontaneously process and present
- stimulation of P69.2 in presence of specific peptide ([4]; B10.GD splenocytes (lacking Ed) as APCs): could not stimulate
- natural presentation of self-peptide ([4]; BALB/c APCs, Fig. 3 B): continuously process and present
- stimulation of P69.2 by added peptide ([4]; dm2 APCs, 60 h, [3H]thymidine last 12 h, Fig. 3 B): required
- natural presentation of self-peptide ([5]; B10.A splenocytes, Fig. 3 A): did not naturally process
- natural presentation of self-peptide ([5]; B10.A(5R) APCs, Fig. 7): present spontaneously
- core region of determinant (residues) [6]: 69-76
- T cell response induced [7]: potent MHC class II-restricted T cell responses
- core region of determinant (residues) [8]: 66-74
- in vitro presentation by BALB/c APCs ([9]; BALB/c APCs, self-MHC class II): regularly presented in vitro
- stimulation of Ld 61-80-specific class II-restricted T cell hybridoma ([9]; Ii-positive and -negative APCs): could be stimulated in the presence of both Ii- positive and -negative APCs
- TAP-1 requirement of class II presentation [9]: does not require a functional TAP-1 protein
